The source made the active and inactive calls.
What was measured:
Format in all cases: functional
[1] = biological target: Ribosomal protein S6 kinase alpha-3 (Homo sapiens, UniProt P51812);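 note: measured within a kinome-wide profiling panel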
[2] = biological target: Tyrosine-protein kinase JAK2 (Homo sapiens, UniProt O60674);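 note: JAK2 tested as one member of a kinase panel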
[3] = biological target: 5'-AMP-activated protein kinase catalytic subunit alpha-1 (Homo sapiens, UniProt Q13131)
[4] = biological target: Death-associated protein kinase 3 (Homo sapiens, UniProt O43293);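 note: measured as one member of a kinome-wide profiling panel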
[5] = biological target: Mitogen-activated protein kinase 8 (Homo sapiens, UniProt P45983);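 note: value comes from one member of a kinome-wide kinase profiling panel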
[6] = biological target: Serine/threonine-protein kinase pim-1 (Homo sapiens, UniProt P11309)
Aurora kinase A = Aurora kinase A (Homo sapiens, UniProt O14965);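 note: value from the Navigating the Kinome kinase panel profiling, panel entry STK6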
[7] = biological target: Mast/stem cell growth factor receptor Kit (Homo sapiens, UniProt P10721);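 note: KIT entry within a kinase panel assay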
Chain of Mast/stem cell growth factor receptor Kit (P10721 whole entry): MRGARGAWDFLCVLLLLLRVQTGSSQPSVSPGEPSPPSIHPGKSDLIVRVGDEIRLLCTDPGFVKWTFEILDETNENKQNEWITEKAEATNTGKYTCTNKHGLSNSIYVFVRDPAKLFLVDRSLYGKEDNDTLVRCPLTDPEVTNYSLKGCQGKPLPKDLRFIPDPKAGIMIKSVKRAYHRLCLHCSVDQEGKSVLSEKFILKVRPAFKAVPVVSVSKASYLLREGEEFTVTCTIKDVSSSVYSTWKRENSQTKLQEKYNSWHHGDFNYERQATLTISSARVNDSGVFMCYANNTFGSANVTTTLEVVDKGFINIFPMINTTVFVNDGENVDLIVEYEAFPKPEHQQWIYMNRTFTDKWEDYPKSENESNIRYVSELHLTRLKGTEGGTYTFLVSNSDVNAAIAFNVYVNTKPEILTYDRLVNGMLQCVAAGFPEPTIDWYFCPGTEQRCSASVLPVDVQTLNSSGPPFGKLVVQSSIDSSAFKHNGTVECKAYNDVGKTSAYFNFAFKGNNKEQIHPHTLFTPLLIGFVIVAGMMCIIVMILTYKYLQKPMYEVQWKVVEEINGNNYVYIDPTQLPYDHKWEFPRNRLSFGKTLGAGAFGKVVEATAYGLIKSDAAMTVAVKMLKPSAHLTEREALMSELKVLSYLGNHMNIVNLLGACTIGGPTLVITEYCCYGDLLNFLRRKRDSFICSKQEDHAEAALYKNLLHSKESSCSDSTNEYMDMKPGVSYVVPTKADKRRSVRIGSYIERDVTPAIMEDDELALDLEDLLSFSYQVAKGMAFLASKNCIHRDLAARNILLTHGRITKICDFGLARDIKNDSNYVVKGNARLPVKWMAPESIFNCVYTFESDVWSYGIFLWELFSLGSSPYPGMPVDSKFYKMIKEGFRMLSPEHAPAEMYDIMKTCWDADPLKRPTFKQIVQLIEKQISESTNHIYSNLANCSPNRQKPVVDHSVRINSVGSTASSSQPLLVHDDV

[8] = biological target: Serine/threonine-protein kinase PAK 4 (Homo sapiens, UniProt O96013);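 note: value obtained within a kinome profiling panel in which PAK4 was one of the panel members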
[9] = biological target: Fibroblast growth factor receptor 1 (Homo sapiens, UniProt P11362)
[10] = biological target: Tyrosine-protein kinase JAK3 (Homo sapiens, UniProt P52333)
[11] = biological target: Mitogen-activated protein kinase 9 (Homo sapiens, UniProt P45984);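 note: value from a kinome panel profiling assay, MAPK9 panel entry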
Chain of Mitogen-activated protein kinase 9 (P45984 whole entry): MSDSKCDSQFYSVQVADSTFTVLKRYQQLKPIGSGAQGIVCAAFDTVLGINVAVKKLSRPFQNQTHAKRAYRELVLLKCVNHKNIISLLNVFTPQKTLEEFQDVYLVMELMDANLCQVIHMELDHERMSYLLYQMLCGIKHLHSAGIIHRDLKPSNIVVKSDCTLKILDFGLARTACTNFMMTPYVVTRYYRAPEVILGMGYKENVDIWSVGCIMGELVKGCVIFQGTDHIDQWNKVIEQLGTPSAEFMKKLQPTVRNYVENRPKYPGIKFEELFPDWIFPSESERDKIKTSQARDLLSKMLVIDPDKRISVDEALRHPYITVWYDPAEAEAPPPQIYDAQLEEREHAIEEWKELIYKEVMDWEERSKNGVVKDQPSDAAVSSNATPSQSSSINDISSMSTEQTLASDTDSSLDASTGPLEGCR

[12] = biological target: High affinity nerve growth factor receptor (Homo sapiens, UniProt P04629);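 note: NTRK1 tested as one member of a kinome-wide profiling panel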
Chain of High affinity nerve growth factor receptor (P04629 whole entry): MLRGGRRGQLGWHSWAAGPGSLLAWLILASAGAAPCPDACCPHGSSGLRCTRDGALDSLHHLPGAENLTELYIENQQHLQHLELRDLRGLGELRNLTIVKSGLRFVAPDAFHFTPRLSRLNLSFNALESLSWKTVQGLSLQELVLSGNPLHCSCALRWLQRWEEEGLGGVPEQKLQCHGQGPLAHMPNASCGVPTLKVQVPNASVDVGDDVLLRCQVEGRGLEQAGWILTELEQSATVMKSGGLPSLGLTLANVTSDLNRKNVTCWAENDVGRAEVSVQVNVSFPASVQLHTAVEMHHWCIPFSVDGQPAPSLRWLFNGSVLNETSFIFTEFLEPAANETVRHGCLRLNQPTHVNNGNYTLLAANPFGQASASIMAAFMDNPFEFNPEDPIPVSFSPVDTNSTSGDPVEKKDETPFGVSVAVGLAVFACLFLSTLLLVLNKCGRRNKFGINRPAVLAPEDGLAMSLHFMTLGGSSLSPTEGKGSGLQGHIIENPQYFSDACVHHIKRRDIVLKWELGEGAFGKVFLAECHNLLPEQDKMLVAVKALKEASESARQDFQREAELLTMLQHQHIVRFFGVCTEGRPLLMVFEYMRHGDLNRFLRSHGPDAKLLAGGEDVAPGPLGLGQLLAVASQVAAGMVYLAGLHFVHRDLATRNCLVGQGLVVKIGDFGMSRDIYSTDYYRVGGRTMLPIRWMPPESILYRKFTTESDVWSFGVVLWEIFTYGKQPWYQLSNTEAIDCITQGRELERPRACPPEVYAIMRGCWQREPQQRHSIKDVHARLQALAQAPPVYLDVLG

[13] = biological target: Glycogen synthase kinase-3 alpha (Homo sapiens, UniProt P49840);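 note: GSK3A result taken from a broad kinome-wide kinase panel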
[14] = biological target: T1, Receptor-type tyrosine-protein kinase FLT3 (Homo sapiens, UniProt P36888);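 note: FLT3 was tested as one member of a kinome-wide kinase panel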
T1 sequence (P36888 whole entry): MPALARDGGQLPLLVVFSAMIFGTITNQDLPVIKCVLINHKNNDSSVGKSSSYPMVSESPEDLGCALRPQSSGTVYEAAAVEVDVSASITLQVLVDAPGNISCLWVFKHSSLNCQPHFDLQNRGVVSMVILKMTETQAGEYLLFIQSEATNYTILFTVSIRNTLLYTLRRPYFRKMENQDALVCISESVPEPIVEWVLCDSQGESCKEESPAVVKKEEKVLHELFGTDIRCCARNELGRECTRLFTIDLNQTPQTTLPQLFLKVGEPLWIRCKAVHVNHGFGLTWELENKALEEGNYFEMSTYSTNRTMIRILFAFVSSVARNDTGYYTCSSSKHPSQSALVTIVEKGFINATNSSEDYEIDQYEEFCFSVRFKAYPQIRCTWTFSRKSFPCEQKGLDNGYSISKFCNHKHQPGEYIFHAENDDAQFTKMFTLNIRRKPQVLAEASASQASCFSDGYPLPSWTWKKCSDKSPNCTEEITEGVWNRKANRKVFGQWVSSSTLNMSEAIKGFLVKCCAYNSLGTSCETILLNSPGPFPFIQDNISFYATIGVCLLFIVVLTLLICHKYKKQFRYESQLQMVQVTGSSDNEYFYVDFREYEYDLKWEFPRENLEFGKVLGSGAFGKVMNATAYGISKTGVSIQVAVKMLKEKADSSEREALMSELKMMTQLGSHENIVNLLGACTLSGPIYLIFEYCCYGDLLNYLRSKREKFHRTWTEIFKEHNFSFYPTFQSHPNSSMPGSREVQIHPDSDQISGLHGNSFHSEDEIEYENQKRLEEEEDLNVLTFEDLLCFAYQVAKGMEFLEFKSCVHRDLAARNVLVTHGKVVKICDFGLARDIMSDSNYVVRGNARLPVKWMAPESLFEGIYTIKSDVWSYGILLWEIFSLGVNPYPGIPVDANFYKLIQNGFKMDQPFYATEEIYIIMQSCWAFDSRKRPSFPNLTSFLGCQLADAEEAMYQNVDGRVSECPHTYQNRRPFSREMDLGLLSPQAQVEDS

[15] = biological target: Tyrosine-protein kinase ABL1 (Homo sapiens, UniProt P00519)
[16] = biological target: Vascular endothelial growth factor receptor 2 (Homo sapiens, UniProt P35968)
[17] = biological target: Insulin-like growth factor 1 receptor (Homo sapiens, UniProt P08069); assay: Navigating the Kinome. Panel member name: IGF1R
Aurora kinase B = Aurora kinase B (Homo sapiens, UniProt Q96GD4)
Chain of Aurora kinase B (Q96GD4 whole entry): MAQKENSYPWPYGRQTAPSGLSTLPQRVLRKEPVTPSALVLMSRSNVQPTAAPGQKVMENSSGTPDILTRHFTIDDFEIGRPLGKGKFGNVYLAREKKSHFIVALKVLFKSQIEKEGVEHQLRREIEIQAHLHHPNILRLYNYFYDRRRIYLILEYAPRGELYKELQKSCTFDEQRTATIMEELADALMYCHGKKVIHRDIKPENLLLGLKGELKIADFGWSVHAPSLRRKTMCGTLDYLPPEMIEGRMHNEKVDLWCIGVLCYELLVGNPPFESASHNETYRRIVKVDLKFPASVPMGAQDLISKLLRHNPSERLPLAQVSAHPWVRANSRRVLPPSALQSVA

[18] = biological target: Rho-associated protein kinase 1 (Homo sapiens, UniProt Q13464);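 note: measured within a broad kinome-wide panel profiling many kinases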
Chain of Rho-associated protein kinase 1 (Q13464 whole entry): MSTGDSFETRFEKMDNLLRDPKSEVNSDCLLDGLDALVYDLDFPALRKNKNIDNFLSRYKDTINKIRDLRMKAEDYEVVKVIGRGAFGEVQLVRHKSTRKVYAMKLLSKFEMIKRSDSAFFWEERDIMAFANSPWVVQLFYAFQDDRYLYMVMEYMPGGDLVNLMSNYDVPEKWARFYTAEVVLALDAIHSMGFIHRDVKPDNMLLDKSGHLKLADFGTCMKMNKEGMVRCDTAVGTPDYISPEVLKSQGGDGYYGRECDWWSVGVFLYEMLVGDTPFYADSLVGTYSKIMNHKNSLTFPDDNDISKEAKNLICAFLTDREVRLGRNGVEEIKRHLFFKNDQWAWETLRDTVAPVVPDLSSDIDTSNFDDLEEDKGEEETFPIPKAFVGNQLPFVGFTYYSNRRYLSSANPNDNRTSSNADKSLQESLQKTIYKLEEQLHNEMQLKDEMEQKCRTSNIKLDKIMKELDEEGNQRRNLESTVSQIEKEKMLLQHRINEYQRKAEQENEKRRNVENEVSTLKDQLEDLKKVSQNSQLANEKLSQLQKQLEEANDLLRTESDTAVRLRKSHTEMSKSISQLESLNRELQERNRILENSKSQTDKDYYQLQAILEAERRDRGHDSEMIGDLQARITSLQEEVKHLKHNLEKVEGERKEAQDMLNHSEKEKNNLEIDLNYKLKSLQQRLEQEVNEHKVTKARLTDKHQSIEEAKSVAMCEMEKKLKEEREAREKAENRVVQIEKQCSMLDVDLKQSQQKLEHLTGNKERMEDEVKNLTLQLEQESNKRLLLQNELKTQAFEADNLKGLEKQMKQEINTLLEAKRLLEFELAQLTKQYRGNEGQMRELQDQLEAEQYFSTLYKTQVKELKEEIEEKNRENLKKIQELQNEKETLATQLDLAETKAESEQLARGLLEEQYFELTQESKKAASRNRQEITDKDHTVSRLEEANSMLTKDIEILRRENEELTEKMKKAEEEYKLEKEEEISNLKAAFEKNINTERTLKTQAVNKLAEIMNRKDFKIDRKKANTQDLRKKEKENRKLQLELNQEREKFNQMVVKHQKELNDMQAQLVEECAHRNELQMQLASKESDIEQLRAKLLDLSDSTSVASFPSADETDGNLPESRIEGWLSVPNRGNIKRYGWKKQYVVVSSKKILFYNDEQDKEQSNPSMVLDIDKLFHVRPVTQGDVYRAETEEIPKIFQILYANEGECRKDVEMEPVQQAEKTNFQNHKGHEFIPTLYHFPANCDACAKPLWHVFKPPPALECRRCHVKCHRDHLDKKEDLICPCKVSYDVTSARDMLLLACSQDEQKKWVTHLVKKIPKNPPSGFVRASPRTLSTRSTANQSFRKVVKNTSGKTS

[19] = biological target: Tyrosine-protein kinase Fyn (Homo sapiens, UniProt P06241)
Chain of Tyrosine-protein kinase Fyn (P06241 whole entry): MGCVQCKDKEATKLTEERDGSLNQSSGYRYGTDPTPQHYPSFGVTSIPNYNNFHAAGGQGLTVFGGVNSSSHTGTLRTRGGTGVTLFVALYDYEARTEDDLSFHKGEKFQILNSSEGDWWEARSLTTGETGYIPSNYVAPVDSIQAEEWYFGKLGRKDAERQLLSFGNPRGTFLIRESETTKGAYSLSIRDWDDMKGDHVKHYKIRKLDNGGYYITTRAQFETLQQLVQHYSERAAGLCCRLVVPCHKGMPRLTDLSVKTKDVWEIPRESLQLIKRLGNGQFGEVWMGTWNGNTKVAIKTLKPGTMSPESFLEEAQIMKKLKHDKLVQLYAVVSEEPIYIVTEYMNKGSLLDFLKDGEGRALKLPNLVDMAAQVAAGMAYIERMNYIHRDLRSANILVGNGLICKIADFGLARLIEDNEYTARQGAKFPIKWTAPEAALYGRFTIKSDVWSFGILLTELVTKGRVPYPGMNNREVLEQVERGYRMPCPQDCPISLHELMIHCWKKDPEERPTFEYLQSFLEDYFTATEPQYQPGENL

[20] = biological target: Vascular endothelial growth factor receptor 1 (Homo sapiens, UniProt P17948);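 note: measured within a kinome-wide profiling panel, FLT1 as the panel member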
[21] = biological target: Glycogen synthase kinase-3 beta (Homo sapiens, UniProt P49841);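 note: value comes from a broad kinome profiling panel, with GSK3B as the panel member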
[22] = biological target: BDNF/NT-3 growth factors receptor (Homo sapiens, UniProt Q16620);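 note: NTRK2 measured as one member of a broad kinome-wide kinase profiling panel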
[23] = biological target: cAMP-dependent protein kinase catalytic subunit alpha (Homo sapiens, UniProt P17612)
[24] = biological target: Macrophage colony-stimulating factor 1 receptor (Homo sapiens, UniProt P07333);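 note: value comes from the Navigating the Kinome screening panel, CSF1R member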
[25] = biological target: Dual specificity tyrosine-phosphorylation-regulated kinase 1A (Homo sapiens, UniProt Q13627);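 note: measured against DYRK1A as one member of a broad kinome profiling panel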
[26] = biological target: Serine/threonine-protein kinase 3 (Homo sapiens, UniProt Q13188);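 note: measured as one member of a kinome-wide kinase panel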
Chain of Serine/threonine-protein kinase 3 (Q13188 whole entry): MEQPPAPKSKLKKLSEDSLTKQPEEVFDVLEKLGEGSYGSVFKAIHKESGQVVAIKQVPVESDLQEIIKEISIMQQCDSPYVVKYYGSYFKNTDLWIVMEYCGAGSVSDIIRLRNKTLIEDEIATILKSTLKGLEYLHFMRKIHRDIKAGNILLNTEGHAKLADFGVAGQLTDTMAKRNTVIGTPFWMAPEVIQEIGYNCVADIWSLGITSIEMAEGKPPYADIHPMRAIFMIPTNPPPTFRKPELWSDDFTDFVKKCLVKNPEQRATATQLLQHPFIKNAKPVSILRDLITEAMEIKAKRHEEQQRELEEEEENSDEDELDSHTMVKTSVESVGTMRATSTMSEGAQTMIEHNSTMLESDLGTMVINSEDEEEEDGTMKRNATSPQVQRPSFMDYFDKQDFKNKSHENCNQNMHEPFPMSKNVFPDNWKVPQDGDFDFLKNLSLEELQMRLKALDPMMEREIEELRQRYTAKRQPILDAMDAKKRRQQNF

[27] = biological target: Platelet-derived growth factor receptor beta (Homo sapiens, UniProt P09619);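 note: value comes from a kinome panel, with PDGFRB tested as one panel member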
Misshapen-like kinase 1 = Misshapen-like kinase 1 (Homo sapiens, UniProt Q8N4C8);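 note: kinome panel screen with MINK as the panel member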
[28] = biological target: cAMP-dependent protein kinase catalytic subunit PRKX (Homo sapiens, UniProt P51817)
[29] = biological target: Leucine-rich repeat serine/threonine-protein kinase 2 (Homo sapiens, UniProt Q5S007);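 note: value from a broad kinome-wide panel profiling study in which LRRK2 was one of the kinases tested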
[30] = biological target: Cyclin-dependent kinase 8 (Homo sapiens, UniProt P49336); assay: Navigating the Kinome. Panel member name: CDK8

In the case of `NC(COc1cncc(-c2cc3ccncc3s2)c1)Cc1c[nH]c2ccccc12` (stereo unspecified), the Ki [1] is reported as 25.1 nM (active), the Ki [2] is reported as 1000 nM (active) and the Ki [3] is reported as 316 nM (active). The Ki [4] was 63.1 nM (active), the Ki [5] was 2510 nM (active) and the Ki [6] was 79.4 nM (active). The Ki (Aurora kinase A) was > 6310 nM (inactive), the Ki [7] was 631 nM (active) and the Ki [8] was 5010 nM (active). The Ki [9] was 2510 nM (active), the Ki [10] was > 1580 nM (inactive) and the Ki [11] was > 3980 nM (inactive). The Ki [12] was > 2510 nM (inactive), the Ki [13] was 25.1 nM (active) and the Ki [14] was 251 nM (active). For the same compound, the Ki [15] was > 631 nM (inactive), the Ki [16] was 794 nM (active) and the Ki [17] was > 1000 nM (inactive). The Ki (Aurora kinase B) was 794 nM (active), the Ki [18] was 20 nM (active) and the Ki [19] was > 794 nM (inactive). The Ki [20] was 316 nM (active), the Ki [21] was 12.6 nM (active) and the Ki [22] was > 5010 nM (inactive). The Ki [23] was 10 nM (active), the Ki [24] was > 2510 nM (inactive) and the Ki [25] was 3.98 nM (active). The Ki [26] was 794 nM (active).
`CN(C)C1CCC(Nc2nc(Cl)cc(-c3c[nH]c4ncccc34)n2)CC1` (stereo unspecified) was tested, and the Ki [1] was 63.1 nM (active), the Ki [2] was 1260 nM (active) and the Ki [3] was 79.4 nM (active). For the same compound, the Ki [4] was 63.1 nM (active), the Ki [5] was 1000 nM (active) and the Ki [6] was 251 nM (active). For the same compound, the Ki (Aurora kinase A) was > 1580 nM (inactive), the Ki [7] was > 3980 nM (inactive) and the Ki [8] was 50.1 nM (active). The Ki [9] was > 3980 nM (inactive), the Ki [10] was 1580 nM (active) and the Ki [11] was > 3980 nM (inactive). The Ki [12] was > 3160 nM (inactive), the Ki [13] was 794 nM (active) and the Ki [27] was 1000 nM (active). The Ki [14] was 1580 nM (active), the Ki [15] was > 3980 nM (inactive) and the Ki [16] was 1260 nM (active). For the same compound, the Ki [17] was > 2510 nM (inactive), the Ki (Misshapen-like kinase 1) was 31.6 nM (active) and the Ki [28] was 25.1 nM (active). The Ki [29] was 15.8 nM (active), the Ki (Aurora kinase B) was 794 nM (active) and the Ki [18] was 1.26 nM (active). The Ki [19] was > 6310 nM (inactive), the Ki [30] was 15.8 nM (active) and the Ki [20] was > 3980 nM (inactive). For the same compound, the Ki [21] was 1580 nM (active), the Ki [22] was 1580 nM (active) and the Ki [23] was 25.1 nM (active). The Ki [24] was 501 nM (active), the Ki [25] was 39.8 nM (active) and the Ki [26] was 79.4 nM (active).

— ChEMBL document CHEMBL1201862, “PubChem BioAssay data set” (2004)
